# Results as given in paper PMC3543460, “Structure-Activity Relationships of the Antimicrobial Peptide Arasin 1 — And Mode of Action Studies of the N-Terminal, Proline-Rich Region” (PLoS ONE, 2013).
# pIC50: −log10 of the molar value. Peptide text beside a SMILES is read from it. * marks the point of attachment. Acm = CC(=O)NC*
# How the values were obtained:
# [1] = system: E. coli ATCC 25922; assay type: cell-based, Escherichia coli; details: ATCC 25922, 24 h
# Method: (§1) Escherichia coli (ATCC 25922), E. coli HB101, Pseudomonas aeruginosa (ATCC 27853), Staphylococcus aureus (ATCC 9144) and Corynebacterium glutamicum (ATCC 13032) were grown at 37°C in Mueller Hinton agar (MH; Difco Laboratories, Detroit, USA). The yeasts Candida albicans (ATCC 10231) and Saccharomyces cerevisiae spp and the mold Botrytis cinerea 101 [33] were cultivated on potato dextrose agar supplemented with 2% glucose at room temperature (RT).
# (§2) Determination of the MIC against bacteria was performed by continuous monitoring of bacterial growth using a Bioscreen C microbiology reader (Labsystems Oy, Helsinki, Finland). The synthetic peptides were tested for antibacterial and antifungal activity at final concentrations (prepared from serial two-fold dilutions) ranging from 0.2 µM to 100 µM. The test was performed in 100-well flat-bottomed honeycomb plates, in which 50 µl peptide solution was incubated with 50 µl of a suspension of an actively growing culture of bacteria diluted to a starting concentration of 2.5×10^5 CFU/ml in Mueller Hinton Broth (MHB). The growth chamber was maintained at 37°C during the incubation period. The absorbance was measured by a turbidometric method with vertical light photometry and a wide band filter (420–580 nm). MIC was defined as the lowest concentration resulting in no visible bacterial growth after 24 h.
# [2] = system: E. coli HB101; test: Antibacterial MIC assay (Bioscreen C growth monitoring); assay type: cell-based, Escherichia coli; details: lowest concentration with no visible bacterial growth after 24 h; 37°C, 50% MH, 2.5×10^5 cells/mL; representative of three individual experiments
# Method: as §1, §2
# [3] = system: P. aeruginosa ATCC 27853; assay type: cell-based, Pseudomonas aeruginosa; details: ATCC 27853, 24 h
# Method: as §1, §2
# [4] = system: C. glutamicum ATCC 13032; assay type: cell-based, Corynebacterium glutamicum; details: ATCC 13032, 24 h
# Method: as §1, §2
# [5] = system: S. aureus ATCC 9144; assay type: cell-based, Staphylococcus aureus; details: ATCC 9144, 24 h
# Method: as §1, §2
# [6] = system: S. cerevisiae spp.; assay type: cell-based, Saccharomyces cerevisiae; details: 48 h
# Method: as §1
# (§3) Fungal spores were dissolved in potato dextrose broth (Difco, Lawrence, KS, USA) and the cell concentration was determined and adjusted after counting in a Bürker chamber. Botrytis cinerea was filtered through a piece of cotton before counting. An aliquot of 50 µl of fungal spores (final concentration 2×10^5 spores/ml) were inoculated in 96-well Nunclon™ microtitre plates (Nagle Nunc Int. Roskilde, Denmark) along with 50 µl of synthetic peptide dissolved in Milli-Q water. Cultures were grown in a dark moist chamber without shaking at 20°C for S. cerevisiae and B. cinerea, and at 37°C for C. albicans. Growth inhibition was determined microscopically after 48 h of incubation. Inhibitory concentrations (IC50) was defined as the lowest concentration tested which yielded less than 50% visible growth compared to the growth control (fungi). Each peptide was tested in parallels in three individual runs for the antimicrobial assays.
# [7] = system: C. albicans ATCC 10231; assay type: cell-based, Candida albicans; details: for pIC50: ATCC 10231, 48 h
# Method: as §1, §3
# [8] = system: B. cinerea 101; assay type: cell-based, Botrytis cinerea; details: for pIC50: 101, 48 h; for IC50 B. cinerea 101: lowest concentration tested giving less than 50% visible growth vs growth control, potato dextrose medium, 20°C, 48 h, three individual experiments
# Method: as §1, §3
# [9] = Chitin-binding assay; details: 50 µg peptide with 40 mg chitin, washes with 0.1 M NaCl, 1 M NaCl, 10% acetic acid at 95°C; RP-HPLC of supernatants
# Method: The ability of arasin 1(1–23) and arasin 1(20–37)-Acm to bind chitin was estimated using a modified protocol from Kawabata et al.. Briefly, 50 µg of peptide was incubated with 40 mg chitin in 800 µl buffer (50 mM Tris-HCl, 0.1 M NaCl, pH 8.0). Sequentially chitin was incubated at RT with 800 µl buffer containing 0.1 M NaCl and 1 M NaCl, respectively, and finally at 95°C with 10% acetic acid. All incubations were performed for 10 min, and chitin was collected by centrifugation at 1000×g for 5 min between each step. Supernatants were subjected to RP-HPLC using a Sunfire™ Prep C18 column (Waters; 100 Å 5 µm; 10×250 mm, MA, USA), with a linear gradient from 8 to 60% acetonitrile and a flow of 3 ml/min over 60 min. Absorbance was monitored at 220 nm and the resulting chromatograms were compared.
Structure (SMILES),MIC E. coli ATCC 25922 [1] [µM],MIC E. coli HB101 [2] [µM],MIC P. aeruginosa ATCC 27853 [3] [µM],MIC C. glutamicum ATCC 13032 [4] [µM],MIC S. aureus ATCC 9144 [5] [µM],pIC50 [6],pIC50 [7],pIC50 [8],IC50 B. cinerea 101 [8] [µM],"IC50 C. albicans ATCC 10231 ([7]; lowest concentration tested giving less than 50% visible growth vs growth control, potato dextrose medium, 37°C, 48 h, three individual experiments) [µM]",binding to chitin [9]
CC[C@H](C)[C@H](NC(=O)[C@@H]1CCCN1C(=O)[C@H](CCCCN)NC(=O)[C@@H]1CCCN1C(=O)[C@H](CCCNC(=N)N)NC(=O)CNC(=O)[C@@H]1CCCN1C(=O)[C@H](Cc1ccccc1)NC(=O)[C@@H]1CCCN1C(=O)[C@H](CCCNC(=N)N)NC(=O)[C@@H]1CCCN1C(=O)[C@H](CCCNC(=N)N)NC(=O)CNC(=O)[C@@H]1CCCN1C(=O)[C@H](CO)NC(=O)[C@@H]1CCCN1C(=O)[C@@H](N)Cc1c[nH]c2ccccc12)C(=O)N[C@@H](Cc1ccccc1)C(=O)N[C@@H](CCCNC(=N)N)C(=O)N1CCC[C@H]1C(=O)N[C@@H](CCCNC(=N)N)C(N)=O [Arasin 1(3–23)] (H-WPSPGRPRPFPGRPKPIFRPR-NH2; N-terminus assumed),25 to 50,12.5,100,3.1,>100,4.90,4.60,4.60,,,
CC[C@H](C)[C@H](NC(=O)[C@@H]1CCCN1C(=O)[C@H](CCCCN)NC(=O)[C@@H]1CCCN1C(=O)[C@H](CCCNC(=N)N)NC(=O)CNC(=O)[C@@H]1CCCN1C(=O)[C@H](Cc1ccccc1)NC(=O)[C@@H]1CCCN1C(=O)[C@H](CCCNC(=N)N)NC(=O)[C@@H]1CCCN1C(=O)[C@H](CCCNC(=N)N)NC(=O)CNC(=O)[C@@H]1CCCN1C(=O)[C@@H](N)CO)C(=O)N[C@@H](Cc1ccccc1)C(=O)N[C@@H](CCCNC(=N)N)C(=O)N1CCC[C@H]1C(=O)N[C@@H](CCCNC(=N)N)C(N)=O [Arasin 1(5–23)] (H-SPGRPRPFPGRPKPIFRPR-NH2; N-terminus assumed),>100,100,>100,6.3,>100,4.90,4.60,4.60,,,
CC[C@H](C)[C@H](NC(=O)[C@@H]1CCCN1C(=O)[C@H](CCCCN)NC(=O)[C@@H]1CCCN1C(=O)[C@H](CCCNC(=N)N)NC(=O)CNC(=O)[C@@H]1CCCN1C(=O)[C@H](Cc1ccccc1)NC(=O)[C@@H]1CCCN1C(=O)[C@H](CCCNC(=N)N)NC(=O)[C@@H]1CCCN1C(=O)[C@H](CCCNC(=N)N)NC(=O)CN)C(=O)N[C@@H](Cc1ccccc1)C(=O)N[C@@H](CCCNC(=N)N)C(=O)N1CCC[C@H]1C(=O)N[C@@H](CCCNC(=N)N)C(N)=O [Arasin 1(7–23)] (H-GRPRPFPGRPKPIFRPR-NH2; N-terminus assumed),50 to 100,25,50 to 100,3.1,>100,4.90,4.60,,50,,
CC[C@H](C)[C@H](NC(=O)[C@@H]1CCCN1C(=O)[C@H](CCCCN)NC(=O)[C@@H]1CCCN1C(=O)[C@H](CCCNC(=N)N)NC(=O)CNC(=O)[C@@H]1CCCN1C(=O)[C@H](Cc1ccccc1)NC(=O)[C@@H]1CCCN1C(=O)[C@H](CCCNC(=N)N)NC(=O)[C@@H]1CCCN1)C(=O)N[C@@H](Cc1ccccc1)C(=O)N[C@@H](CCCNC(=N)N)C(=O)N1CCC[C@H]1C(=O)N[C@@H](CCCNC(=N)N)C(N)=O [Arasin 1(9–23)] (H-PRPFPGRPKPIFRPR-NH2; N-terminus assumed),>100,100,>100,12.5,>100,4.60,,,50,50,
CC(=O)NCSC[C@H](NC(=O)[C@H](CC(N)=O)NC(=O)[C@H](CSCNC(C)=O)NC(=O)[C@@H]1CCCN1C(=O)[C@H](CCCNC(=N)N)NC(=O)[C@@H]1CCCN1C(=O)[C@H](CCCNC(=N)N)NC(=O)[C@@H](N)Cc1ccccc1)C(=O)N[C@@H](Cc1ccc(O)cc1)C(=O)N[C@@H](C)C(=O)N1CCC[C@H]1C(=O)N1CCC[C@H]1C(=O)N[C@@H](CSCNC(C)=O)C(=O)N1CCC[C@H]1C(=O)N[C@@H](CSCNC(C)=O)C(=O)N[C@@H](CC(=O)O)C(=O)N[C@@H](CCCNC(=N)N)C(=O)N[C@@H](Cc1c[nH]c2ccccc12)C(=O)O [Arasin 1(20–37)-Acm] (H-FRPRPC(Acm)NC(Acm)YAPPC(Acm)PC(Acm)DRW-OH; N-terminus and C-terminus assumed),>100,,>100,>100,>100,< 4.00,< 4.00,< 4.00,,,did not bind tightly to chitin
